pKd: −log10 of the molar value.
Tests used:
[1] = biological target: APP-C peptide of the affinity measurement (15 aa; human or squid sequence not told); assay: pull-down
squid giant axon = assay: Axonal transport of injected fluorescent bead cargo, confocal time-lapse; type: cell-based, North Atlantic Long-Finned Squid (Loligo pealleii)

| pKd [1] | Substance | Run length (squid giant axon; calculated as v1/k1) [μm] | Detachment rate k1 (squid giant axon; from average run time, Poisson distribution, run v1 > 0.1 μm s^−1, about 40 runs) [s⁻¹] |
| --- | --- | --- | --- |
| 8.33 | kinesin-1 of rat brain extract (from UniProt Q2PQA9 1-963) (complex) | – | – |
| – | GYENPTYKFFEQMQN [hAPP-C] | 11.5 | 0.0322 |
